{"source": "patent US20210236687A1", "about": "“CANNABINOID-BASED ORAL HEMOSTATIC COMPOSITIONS” (Pac-Dent, Inc., priority 2020, published 2021)", "origin": "cited, not measured here", "key": {"[1]": {"system": "MCP-2 chemokine and other proinflammatory cytokines", "conditions": "Petrosino et al. 2018; inhibition of production of MCP-2 chemokine and other proinflammatory cytokines"}, "[2]": {"conditions": "in vivo"}, "[3]": {"system": "methicillin-resistant Staphylococcus aureus strains (MRSA)", "conditions": "European research"}, "[4]": {"conditions": "in vivo", "remark": "listed apart in the source"}, "[5]": {"conditions": "Evans 1991"}}}
{"smiles": "CCCCCc1cc(O)c2c(c1)OC(C)(CCC=C(C)C)C=C2", "note": "(stereo not shown) [CBC, cannabichromene]", "values": [{"measurement": "anti-inflammatory properties in an in vitro model of allergic contact dermatitis", "setting": "[1]", "result": "some anti-inflammatory benefits"}, {"measurement": "pain and inflammation associated with collagen-induced osteoarthritis", "setting": "[2]", "result": "block pain and inflammation"}]}
{"smiles": "C=C(C)[C@@H]1CCC(C)=C[C@H]1c1c(O)cc(CCCCC)cc1O", "note": "[CBD, cannabidiol, reference compound]", "values": [{"measurement": "anti-inflammatory properties in an in vitro model of allergic contact dermatitis", "setting": "[1]", "result": "potent anti-inflammatory properties"}]}
{"smiles": "C=C(C)[C@@H]1CCC(C)=C[C@H]1c1c(O)cc(CCC)cc1O", "note": "[CBDV, cannabidivarin]", "values": [{"measurement": "anti-inflammatory properties in an in vitro model of allergic contact dermatitis", "setting": "[1]", "result": "some anti-inflammatory benefits"}]}
{"smiles": "CCCCCc1cc(O)c(C/C=C(\\C)CCC=C(C)C)c(O)c1", "note": "[CBG, cannabigerol]", "values": [{"measurement": "anti-inflammatory properties in an in vitro model of allergic contact dermatitis", "setting": "[1]", "result": "some anti-inflammatory benefits"}, {"measurement": "antibacterial effect against MRSA strains resistant to several classes of drugs", "setting": "[3]", "result": "effective antibacterial agent"}, {"measurement": "inflammation characteristics in animal experiments", "setting": "[4]", "result": "effective in decreasing the inflammation characteristics"}]}
{"smiles": "CCCCCc1cc(O)c2c(c1)OC(C)(C)[C@@H]1CCC(C)=C[C@@H]21", "note": "[THC, tetrahydrocannabinol]", "values": [{"measurement": "anti-inflammatory potency relative to aspirin", "setting": "[5]", "result": "twenty times"}, {"measurement": "anti-inflammatory potency relative to hydrocortisone", "setting": "[5]", "result": "twice"}, {"measurement": "cyclooxygenase (COX) inhibition", "setting": "cyclooxygenase (COX)", "result": "without any cyclooxygenase (COX) inhibition"}]}
